In publication PMC10552397 (Cell Communication and Signaling : CCS, 2023):

Test system: JUN
Assay: TPP-TR/RTSA, JUN
Assay type: binding, Homo sapiens
Conditions: 100 nM vs DMSO, 6 h, HeLa wt
Experimental: TPP was performed essentially as described, but with major modifications to the TMT labeling sets and statistical data analysis for TPP-TR.
Adherent cells were washed in the dish once with DPBS and harvested by Trypsin–EDTA (0.25%, Thermo Fisher Scientific, Waltham, MA, USA, #25,200,056) treatment. […]
After temperature treatment, samples were supplemented with lysis buffer (final concentrations: 0.36 U/µL benzonase, 1.5 mM MgCl2, 1 mM Na3VO4, 10 mM NaF, 2.5 mM Na4P2O7, 0.8% w/v NP-40) for 1 h on ice. […] The total protein concentration of the resulting cell extracts containing the fraction of soluble, non-denatured proteins was determined (Pierce 660 nm Protein Assay, BSA as standard). […] The two (37 °C or 50 °C) x ten (concentrations) x three (replicates) = 60 TPP-CCR samples and two (treatment and control) x ten (temperatures) x three (replicates) = 60 TPP-TR samples were analyzed by LC–MS/MS. GRASP55 was additionally quantified from the TPP-TR samples by immunoblotting as described in the respective section.
For TPP-CCR, SP3 was performed as described with slight modifications to the original protocol using on average 5 µg total protein per sample and resulting in theoretically 5 µg peptides in 22 µL 50 mM triethylammonium bicarbonate per sample. […] This volume was calculated such that the lowest two temperature samples (36.5 °C and 41.2 °C) contained 10 µg total protein on average. […]

CCCCCC1=C/C(=C/c2[nH]c(-c3ccc[nH]3)cc2OC)N=C1C [Prodigiosin, prodigiosin] was tested, and the Mean_dTm was -0.6723.
